Paper PMC12621184, “Synthesis and Pharmacological Characterization of Nociceptin/Orphanin FQ Dimeric Ligands” (Journal of Medicinal Chemistry, 2025)
Bridge positions count the residues as written; N and C are the ends. Ends that are not written are not given here. Peptide text beside a SMILES is read from it. I, II: the chains in the order shown.

How the values were obtained:
[1] = molecular target: murine NOP receptor (mouse (endogenous in mouse vas deferens)) (UniProt P35377)
[2] = molecular target: T1, human NOP (Homo sapiens, UniProt P41146); experiment: NOP receptor–G protein interaction BRET assay; format: biochemical; set-up: expressed in transfected cells; host or cells: membranes of HEK293 cells stably coexpressing NOP-RLuc and Gβ1-RGFP; details: N = 5 experiments in duplicate; for EC50: membranes from HEK293 cells coexpressing NOP-RLuc and Gβ1-RGFP, room temperature, mean (CL95%), read-out: NOP–G protein interaction pEC50 (CL95%) (converted); for NOP–G protein interaction E max ± sem: effects normalized to N/OFQ-NH2 (E max = 1), mean ± sem
T1 sequence (P41146 whole entry): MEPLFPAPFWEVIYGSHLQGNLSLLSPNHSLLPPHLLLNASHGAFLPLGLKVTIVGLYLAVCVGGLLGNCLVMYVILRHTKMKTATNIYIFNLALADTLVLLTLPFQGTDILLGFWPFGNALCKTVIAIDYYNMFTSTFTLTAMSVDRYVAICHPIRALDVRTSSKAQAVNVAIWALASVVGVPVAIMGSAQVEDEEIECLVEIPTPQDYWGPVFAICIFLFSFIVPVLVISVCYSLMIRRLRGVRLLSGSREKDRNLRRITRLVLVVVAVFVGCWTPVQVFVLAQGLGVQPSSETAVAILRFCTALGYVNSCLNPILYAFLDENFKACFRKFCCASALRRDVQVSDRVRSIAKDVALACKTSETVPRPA
Description: A BRET interaction assay was used, as previously detailed in ref , to study the propensity of ligands to evoke interaction between the NOP receptor and to G protein. Membranes taken from HEK293 cells stably coexpressing the fusoproteins NOP-RLuc and Gβ1-RGFP were used. Such cells were grown in DMEM medium supplemented with 10% FBS, 2 mM L-glutamine, […] G418, […] hygromycin B, 100 IU/mL penicillin, and 100 IU/mL streptomycin in a humidified atmosphere with 5% CO2 at 37 °C. Cell membranes were thawed and resuspended in PBS supplemented with 0.01% BSA before the assay, and an amount of 3 μg of total protein was dispensed in each of the 96 wells together with 2 μM Prolume Purple Coelenterazine. All experiments were carried out at room temperature. Ligands were added, and averaged BRET ratios from 10 min measurements were computed. BRET ratios were computed as counts per second (CPS) obtained on a Victor Nivo (PerkinElmer) with 405 (10) nm and 510 (30) nm bandpass filters. Vehicles’ BRET ratios were derived from light passed through 510 divided by that passed through 405 filters. Vehicles BRET values were subtracted from all computations, and data sets were normalized as a fraction of N/OFQ maximal effects.
(§1) Concentration-response curves to agonists were analyzed by a four-parameter logistic nonlinear regression model: Effect = baseline + (E max – baseline)/(1 + 10^((logEC50–log[ligand])slope)). […] Experimental data were expressed as mean ± sem of at least 5 experiments. Potency values were expressed as the mean and CL95%. In vitro E max values were analyzed by one-way ANOVA, while in vivo latency data were evaluated by one-way ANOVA followed by Dunnett’s post hoc test. The proportion of mice losing the righting reflex was compared by Fisher’s exact test performed on raw data. GraphPad Prism 10.0 software was used for all of the analyses. The terminology employed is consistent with the International Union of Basic and Clinical Pharmacology (IUPHAR) recommendations. ,

[3] = molecular target: T1, human NOP; experiment: Calcium mobilization assay, CHO cells with NOP receptor and chimeric G protein; format: cell-based; set-up: expressed in transfected cells; details: for EC50: CHO cells coexpressing human NOP and Gαqi5, Fluo-4, 37 °C, mean (CL95%), N = 5 experiments in duplicate, read-out: Ca^2+ mobilization pEC50 (CL95%) (converted); for Ca^2+ mobilization E max ± sem: CHO cells coexpressing human NOP and Gαqi5, maximum change in percentage over baseline fluorescence, mean ± sem, N = 5 in duplicate
Description: Chinese hamster ovary (CHO) cells stably coexpressing the human NOP, μ, or κ opioid receptors and the Gαqi5 protein or the human δ and the GαqG66Di5 protein were used in this assay. , Cells were cultured in DMEM/F-12 (1:1) medium supplemented with 10% FBS, 2 mM L-glutamine, […], 100 IU/mL penicillin, and 100 IU/mL streptomycin. Cells were maintained at 37 °C in a humidified atmosphere with 5% CO2 and were seeded at 50 000 cells/well into 96-well black, clear-bottom plates 24 h before test. Loading for 45 min with a solution consisting of HBSS supplemented with 2.5 mM probenecid, 3 μM Fluo-4 AM, and 0.01% pluronic acid ensures the calcium-sensitive dye (Fluo-4) reaches the needed concentration inside the cell, while the exchange of the solution with 100 μL/well of buffer consisting of HBSS with 20 mM HEPES, 2.5 mM probenecid, and 500 μM Brilliant Black allows for fluorescence background to decrease. Serial dilutions of ligands were prepared in HBSS buffer with 20 mM HEPES and 0.02% bovine serum albumin (BSA) to minimize the ligands’ stickiness to plasticware. The automated microplate reader FlexStation II (Molecular Devices, CA, US) was employed at 37 °C to detect changes in fluorescence intensity. The effects of all compounds were expressed as the maximum change in percentage over the baseline fluorescence measured in samples treated with vehicles.
as §1

[4] = system: mouse vas deferens from NOP(−/−) mice; experiment: Electrically stimulated mouse vas deferens bioassay, NOP(−/−) tissues; details: mVD from CD-1 NOP(−/−) mice; 5 experiments
Description: (§2) This study was approved by the Animal Welfare Body of the University of Ferrara and by the Italian Ministry of Health (authorization number CBCC2.N.BXI). Experiments were performed on an isolated mouse vas deferens. All experiments were conducted with mice bred and housed in the University of Ferrara’s animal facility under specific pathogen-free conditions (SPF). All mice were housed in cages with individual ventilation, with a constant temperature of 21 °C, 60% humidity, and a 12 h light/dark cycle. Food and water were provided ad libitum. CD-1 NOP(+/+) and CD-1 NOP(−/−) male mice, aged 9 to 12 months, were used. Animals were sacrificed on the day of the experiment with CO2 overdose. Bioassay experiments were performed as previously described. The tissues were suspended in 5 mL organ bath containing Krebs solution (NaCl 118.5 […]). The Krebs solution was oxygenated with 95% O2 and 5% CO2 and the temperature set at 33 °C with a resting tension of 0.3 g applied to the tissues. Tissues were stimulated through two platinum electrodes with a supramaximal rectangular pulse of 1 ms duration, 0.05 Hz frequency, and 80 V of amplitude. The electrically evoked contractions were measured isotonically by means of Basile strain gauge transducers (Basile, IT) and a recorder with a Power Lab 8 instrument (ADInstruments, CO, U.S.). Following an equilibration period of approximately 60 min, the contractions induced by electrical field stimulation were stable. At this time, cumulative concentration response curves were carried out.
Concentration-response curves to agonists were analyzed by a four-parameter logistic nonlinear regression model: Effect = baseline + (E max – baseline)/(1 + 10^((logEC50–log[ligand])slope)). […] Experimental data were expressed as mean ± sem of at least 5 experiments. Potency values were expressed as the mean and CL95%. In vitro E max values were analyzed by one-way ANOVA, while in vivo latency data were evaluated by one-way ANOVA followed by Dunnett’s post hoc test. […]

[5] = system: mouse vas deferens from NOP(+/+) mice; experiment: Electrically stimulated mouse vas deferens bioassay, NOP(+/+) tissues; details: mVD from CD-1 NOP(+/+) mice, 5 experiments
Description: as §2, §1

[6] = molecular target: human nociceptin/orphanin FQ (N/OFQ) peptide receptor (human) (UniProt P41146)
human nociceptin/orphanin FQ (N/OFQ) peptide receptor (human), sequence (P41146 whole entry): as above

[7] = molecular target: NOP-RLuc (UniProt P41146)
NOP-RLuc, sequence (P41146 whole entry): as above

murine NOP receptor (mouse (endogenous in mouse vas deferens)), sequence (P35377 whole entry): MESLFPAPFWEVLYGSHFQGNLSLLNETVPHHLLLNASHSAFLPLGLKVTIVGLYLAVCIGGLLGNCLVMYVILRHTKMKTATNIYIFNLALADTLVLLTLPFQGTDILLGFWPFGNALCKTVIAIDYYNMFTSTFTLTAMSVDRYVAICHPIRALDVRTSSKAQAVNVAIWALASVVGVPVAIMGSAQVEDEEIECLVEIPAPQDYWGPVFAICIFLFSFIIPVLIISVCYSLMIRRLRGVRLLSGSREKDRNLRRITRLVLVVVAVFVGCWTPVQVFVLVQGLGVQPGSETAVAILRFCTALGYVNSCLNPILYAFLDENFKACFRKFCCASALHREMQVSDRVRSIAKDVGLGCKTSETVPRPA

Row | Molecule | EC50 [2] | EC50 [3] | Ca^2+ mobilization E max ± sem [3] | further results
1 | nociceptin/orphanin FQ (peptide) | – | – | – | maximal inhibition of electrically induced contractions of the mouse vas deferens, NOP(+/+) tissues [1]: 71%; potency (pEC50), inhibition of electrically induced contractions of the mouse vas deferens, NOP(+/+) tissues [1]: 7.59 pEC50
2 | CC(C)C[C@H](NC(=O)[C@H](CCCCN)NC(=O)[C@H](CCCNC(=N)N)NC(=O)[C@H](C)NC(=O)[C@H](CO)NC(=O)[C@H](CCCCN)NC(=O)[C@H](CSSC[C@H](NC(=O)[C@H](C)NC(=O)CNC(=O)[C@@H](NC(=O)[C@H](Cc1ccccc1)NC(=O)CNC(=O)CNC(=O)[C@@H](N)Cc1ccccc1)[C@@H](C)O)C(=O)N[C@@H](CCCCN)C(=O)N[C@@H](CO)C(=O)N[C@@H](C)C(=O)N[C@@H](CCCNC(=N)N)C(=O)N[C@@H](CCCCN)C(=O)N[C@@H](CC(C)C)C(=O)N[C@@H](C)C(=O)N[C@@H](CC(N)=O)C(=O)N[C@@H](CCC(N)=O)C(N)=O)NC(=O)[C@H](C)NC(=O)CNC(=O)[C@@H](NC(=O)[C@H](Cc1ccccc1)NC(=O)CNC(=O)CNC(=O)[C@@H](N)Cc1ccccc1)[C@@H](C)O)C(=O)N[C@@H](C)C(=O)N[C@@H](CC(N)=O)C(=O)N[C@@H](CCC(N)=O)C(N)=O [1b, [[Cys^8]N/OFQ-NH2]2] (I: H-FGGFTGACKSARKLANQ-NH2 / II: H-FGGFTGACKSARKLANQ-NH2; disulfide I:8-II:8) | 9.12 nM | 43.7 nM | 322 ± 20 % over the baseline | –
3 | CC(C)C[C@H](NC(=O)[C@H](CCCCN)NC(=O)[C@H](CCCNC(=N)N)NC(=O)[C@H](C)NC(=O)[C@H](CSSC[C@H](NC(=O)[C@H](CCCCN)NC(=O)[C@H](CCCNC(=N)N)NC(=O)[C@H](C)NC(=O)CNC(=O)[C@@H](NC(=O)[C@H](Cc1ccccc1)NC(=O)CNC(=O)CNC(=O)[C@@H](N)Cc1ccccc1)[C@@H](C)O)C(=O)N[C@@H](C)C(=O)N[C@@H](CCCNC(=N)N)C(=O)N[C@@H](CCCCN)C(=O)N[C@@H](CC(C)C)C(=O)N[C@@H](C)C(=O)N[C@@H](CC(N)=O)C(=O)N[C@@H](CCC(N)=O)C(N)=O)NC(=O)[C@H](CCCCN)NC(=O)[C@H](CCCNC(=N)N)NC(=O)[C@H](C)NC(=O)CNC(=O)[C@@H](NC(=O)[C@H](Cc1ccccc1)NC(=O)CNC(=O)CNC(=O)[C@@H](N)Cc1ccccc1)[C@@H](C)O)C(=O)N[C@@H](C)C(=O)N[C@@H](CC(N)=O)C(=O)N[C@@H](CCC(N)=O)C(N)=O [1d, [[Cys^10]N/OFQ-NH2]2] (I: H-FGGFTGARKCARKLANQ-NH2 / II: H-FGGFTGARKCARKLANQ-NH2; disulfide I:10-II:10) | 0.141 nM | 1.91 nM | 305 ± 42 % over the baseline | –
4 | CC(C)C[C@H](NC(=O)[C@H](CCCCN)NC(=O)[C@H](CCCNC(=N)N)NC(=O)[C@H](C)NC(=O)[C@H](CO)NC(=O)[C@H](CCCCN)NC(=O)[C@H](CCCNC(=N)N)NC(=O)[C@H](C)NC(=O)CNC(=O)[C@@H](NC(=O)[C@H](Cc1ccccc1)NC(=O)CNC(=O)CNC(=O)[C@@H](N)Cc1ccccc1)[C@@H](C)O)C(=O)N[C@@H](C)C(=O)N[C@@H](CSSC[C@H](NC(=O)[C@H](C)NC(=O)[C@H](CC(C)C)NC(=O)[C@H](CCCCN)NC(=O)[C@H](CCCNC(=N)N)NC(=O)[C@H](C)NC(=O)[C@H](CO)NC(=O)[C@H](CCCCN)NC(=O)[C@H](CCCNC(=N)N)NC(=O)[C@H](C)NC(=O)CNC(=O)[C@@H](NC(=O)[C@H](Cc1ccccc1)NC(=O)CNC(=O)CNC(=O)[C@@H](N)Cc1ccccc1)[C@@H](C)O)C(=O)N[C@@H](CCC(N)=O)C(N)=O)C(=O)N[C@@H](CCC(N)=O)C(N)=O [1j, [[Cys^16]N/OFQ-NH2]2] (I: H-FGGFTGARKSARKLACQ-NH2 / II: H-FGGFTGARKSARKLACQ-NH2; disulfide I:16-II:16) | 0.174 nM | 1.38 nM | 312 ± 38 % over the baseline | NOP–G protein interaction E max ± sem [2]: 0.98 ± 0.02
5 | CC(C)C[C@H](NC(=O)[C@H](CCCCN)NC(=O)[C@H](CSSC[C@H](NC(=O)[C@H](C)NC(=O)[C@H](CO)NC(=O)[C@H](CCCCN)NC(=O)[C@H](CCCNC(=N)N)NC(=O)[C@H](C)NC(=O)CNC(=O)[C@@H](NC(=O)[C@H](Cc1ccccc1)NC(=O)CNC(=O)CNC(=O)[C@@H](N)Cc1ccccc1)[C@@H](C)O)C(=O)N[C@@H](CCCCN)C(=O)N[C@@H](CC(C)C)C(=O)N[C@@H](C)C(=O)N[C@@H](CC(N)=O)C(=O)N[C@@H](CCC(N)=O)C(N)=O)NC(=O)[C@H](C)NC(=O)[C@H](CO)NC(=O)[C@H](CCCCN)NC(=O)[C@H](CCCNC(=N)N)NC(=O)[C@H](C)NC(=O)CNC(=O)[C@@H](NC(=O)[C@H](Cc1ccccc1)NC(=O)CNC(=O)CNC(=O)[C@@H](N)Cc1ccccc1)[C@@H](C)O)C(=O)N[C@@H](C)C(=O)N[C@@H](CC(N)=O)C(=O)N[C@@H](CCC(N)=O)C(N)=O [1f, [[Cys^12]N/OFQ-NH2]2] (I: H-FGGFTGARKSACKLANQ-NH2 / II: H-FGGFTGARKSACKLANQ-NH2; disulfide I:12-II:12) | 1.26 nM | 3.02 nM | 346 ± 19 % over the baseline | NOP–G protein interaction E max ± sem [2]: 1.07 ± 0.12
6 | [D-Pen^2,D-Pen^5]enkephalin [DPDPE] | – | – | – | effect in mVD tissues from NOP(−/−) mice (in words) [4]: superimposable; potency (pEC50) for inhibition of electrically induced contractions ([5]; 33 °C, mean (CL95%)): 7.72 (7.45–7.99); maximal inhibition of electrically induced contractions ([5]; mean ± sem): 86 ± 6%
7 | FGGFTGARKSARKCANQ-NH2 (also: homodimer: Cys14-Cys14 disulfide to second copy) [[[Cys^14]N/OFQ-NH2]2] | – | – | – | pEC50, inhibition of electrically induced contractions of the mouse vas deferens, NOP(+/+) tissues [1]: 6.79 pEC50; E max, Ca^2+ mobilization in CHO cells with human NOP and Gαqi5 (% over baseline) [6]: 241; pEC50, Ca^2+ mobilization in CHO cells with human NOP and Gαqi5 [6]: 9.14 pEC50; pEC50, NOP–G protein interaction (BRET, membranes of HEK293 cells with NOP-RLuc and Gβ1-RGFP) [7]: 9.91 pEC50; E max, NOP–G protein interaction (BRET), normalised to N/OFQ-NH2 (E max = 1) ([7]; scale: fraction of the maximal effect of N/OFQ-NH2): 0.8
